The values that follow come from ChEMBL document CHEMBL5055668 (J Med Chem, 2021).

The test system of data set [1] is THP-1. Nature of the data set: Induction of conversion of M2-macrophages to the M1 phenotype in CM of HCT116 cells treated […]-differentiated human THP-1 cells assessed as upregulation of Il6 mRNA expression at 30 to 100 nM incubated for 24 hrs by qPCR analysis. The data set is classed as functional, cell-based. To be noted: dose 30-100 nM.
Data set [2] relates to THP-1. The experiment in a line: Induction of conversion of M2-macrophages to the M1 phenotype in CM of HCT116 cells treated […]-differentiated human THP-1 cells assessed as upregulation of Tnf mRNA expression at 30 to 100 nM incubated for 24 hrs by qPCR analysis. The data set is classed as functional, cell-based. To be noted: dose 30-100 nM.
The test system of data set [3] is MC-38. The experiment in a line: Induction of conversion of M2-macrophages to the M1 phenotype in CM of MC38 cells treated C57BL/6 mouse BMDM cells transfected with CSF1R shRNA2 assessed as decrease in Tnf mRNA expression measured after 24 hrs by qPCR analysis. Type of data set: functional, cell-based.
Data set [4] has as its system MC-38. Nature of the data set: Antitumor activity against mouse MC38 cells allografted in C57BL6 mouse assessed as reduction in CSF-1R phosphorylation in tumor tissue at 5 to 10 mg/kg, po administered daily for 2 weeks by Western blot analysis. The data set is classed as functional, organism-based. To be noted: dose 5-10 mg/kg.
The subject of data set [5] is THP-1. The experiment in a line: Induction of conversion of M2-macrophages to the M1 phenotype in CM of HCT116 cells treated […]-differentiated human THP-1 cells assessed as down regulation of Il10 mRNA expression at 30 to 100 nM incubated for 24 hrs by qPCR analysis. To be noted: dose 30-100 nM. The data set is classed as functional, cell-based.
Data set [6] has as its system BMDM. The experiment in a line: Induction of conversion of M2-macrophages to the M1 phenotype in CM of MC38 cells treated C57BL/6 mouse BMDM cells assessed as down regulation of Chil3 mRNA expression at 30 to 100 nM preincubated with culture medium of MC38 cells for 24 hrs followed by compound addition and measured after 24 hrs by qPCR analysis. The data set is classed as functional, cell-based. To be noted: dose 30-100 nM.

Data set [7] has as its system THP-1. Nature of the data set: Induction of conversion of M2-macrophages to the M1 phenotype in CM of HCT116 cells treated […]-differentiated human THP-1 cells assessed as down regulation of Retnla mRNA expression at 30 to 100 nM incubated for 24 hrs by qPCR analysis. The data set is classed as functional, cell-based. To be noted: dose 30-100 nM.
Data set [8] deals with MC-38. The experiment in a line: Antitumor activity against mouse MC38 cells allografted in po dosed C57BL6 mouse assessed as inhibition of tumor growth administered daily for 2 weeks by caliper method. Type of data set: functional, organism-based. To be noted: dose 5-20 mg/kg.
Data set [9] relates to Mus musculus. The experiment in a line: Toxicity in C57BL/6 mouse allografted with mouse MC38 cells assessed as liver damage at 5 to 20 mg/kg, po administered every day for 2 weeks by histopathological analysis. Type of data set: organism-based, MC-38. To be noted: in vivo, 336 h, dose 5-20 mg/kg.
The subject of data set [10] is BMDM. Nature of the data set: Induction of conversion of M2-macrophages to the M1 phenotype in CM of MC38 cells treated C57BL/6 mouse BMDM cells assessed as upregulation of Nos2 mRNA expression at 30 to 100 nM preincubated with culture medium of MC38 cells for 24 hrs followed by compound addition and measured after 24 hrs by qPCR analysis. To be noted: dose 30-100 nM. Type of data set: functional, cell-based.

In data set [11] the test system is Mus musculus. The experiment in a line: Toxicity in C57BL/6 mouse allografted with mouse MC38 cells assessed as weight loss at 5 to 20 mg/kg, po administered every day for 2 weeks. Type of data set: organism-based, MC-38. To be noted: in vivo, 336 h, dose 5-20 mg/kg.
The target of data set [12] is T1, Macrophage colony-stimulating factor 1 receptor (Mus musculus, UniProt P09581).
T1 sequence (P09581 whole entry): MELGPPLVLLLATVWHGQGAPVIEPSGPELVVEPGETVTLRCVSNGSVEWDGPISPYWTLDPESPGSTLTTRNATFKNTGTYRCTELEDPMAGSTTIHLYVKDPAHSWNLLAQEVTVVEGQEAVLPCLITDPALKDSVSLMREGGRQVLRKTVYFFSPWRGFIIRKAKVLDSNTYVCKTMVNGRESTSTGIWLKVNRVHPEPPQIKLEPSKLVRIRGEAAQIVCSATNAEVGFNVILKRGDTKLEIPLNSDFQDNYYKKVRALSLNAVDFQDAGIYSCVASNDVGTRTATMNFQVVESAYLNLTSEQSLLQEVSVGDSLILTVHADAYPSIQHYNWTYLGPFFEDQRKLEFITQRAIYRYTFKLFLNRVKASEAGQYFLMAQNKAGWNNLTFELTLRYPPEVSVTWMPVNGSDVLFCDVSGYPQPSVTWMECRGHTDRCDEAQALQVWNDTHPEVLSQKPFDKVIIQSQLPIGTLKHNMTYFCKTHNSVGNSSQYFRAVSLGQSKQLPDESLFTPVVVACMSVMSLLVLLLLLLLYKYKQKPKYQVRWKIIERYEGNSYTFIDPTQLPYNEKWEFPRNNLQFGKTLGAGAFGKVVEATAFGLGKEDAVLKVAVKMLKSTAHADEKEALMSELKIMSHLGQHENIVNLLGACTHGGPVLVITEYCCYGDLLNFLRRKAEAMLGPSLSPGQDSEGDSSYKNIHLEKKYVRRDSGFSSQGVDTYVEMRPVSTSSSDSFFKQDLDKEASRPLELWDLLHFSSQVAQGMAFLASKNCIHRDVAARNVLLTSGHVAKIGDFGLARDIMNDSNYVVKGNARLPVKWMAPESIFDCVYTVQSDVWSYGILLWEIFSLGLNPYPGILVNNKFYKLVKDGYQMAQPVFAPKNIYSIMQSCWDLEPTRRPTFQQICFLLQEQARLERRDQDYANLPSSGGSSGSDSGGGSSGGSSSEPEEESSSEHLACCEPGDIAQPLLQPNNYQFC
Nature of the data set: Binding affinity to CSF-1R in C57BL/6 mouse BMDM cells assessed as dissociation constant by SPR assay.

The test system of data set [13] is MC-38. Nature of the data set: Antitumor activity against mouse MC38 cells allografted in macrophage depleted C57BL6 mouse at 20 mg/kg, po administered daily for 2 weeks. The data set is classed as functional, organism-based.
Data set [14] concerns MC-38. The experiment in a line: Antitumor activity against mouse MC38 cells allografted in C57BL6 mouse assessed as increase in Il12 mRNA expression at 10 to 20 mg/kg, po administered daily for 2 weeks by qPCR analysis. To be noted: dose 10-20 mg/kg. The data set is classed as functional, organism-based.
In data set [15] the test system is MC-38. Nature of the data set: Antitumor activity against mouse MC38 cells allografted in C57BL6 mouse assessed as decrease in chil3 mRNA expression at 10 to 20 mg/kg, po administered daily for 2 weeks by qPCR analysis. Type of data set: functional, organism-based. To be noted: dose 10-20 mg/kg.
Data set [16] has as its system Mus musculus. Nature of the data set: Toxicity in C57BL/6 mouse allografted with mouse MC38 cells assessed as spleen damage at 5 to 20 mg/kg, po administered every day for 2 weeks by histopathological analysis. To be noted: in vivo, 336 h, dose 5-20 mg/kg. Type of data set: organism-based, MC-38.
In data set [17] the target is T2, Macrophage colony-stimulating factor 1 receptor (Mus musculus) (UniProt P09581).
T2 sequence (whole entry): T1 sequence (P09581 whole entry)
The experiment in a line: Binding affinity to CSF-1R in C57BL/6 mouse BMDM cells assessed as increase in melting temperature at 100 nM after 1 hr by CETSA. Type of data set: cell-based.

Data set [18] relates to Mus musculus. The experiment in a line: Toxicity in C57BL/6 mouse allografted with mouse MC38 cells assessed as kidney damage at 5 to 20 mg/kg, po administered every day for 2 weeks by histopathological analysis. To be noted: in vivo, 336 h, dose 5-20 mg/kg. Type of data set: organism-based, MC-38.
The test system of a further data set is HCT-116. The experiment in a line: Antitumor activity against human HCT-116 cells xenografted in nude BALB/c mouse assessed as reduction in tumor weight at 5 to 20 mg/kg, po administered daily for 2 weeks. The data set is classed as functional, organism-based. To be noted: dose 5-20 mg/kg.

Structures are written as SMILES. Activity calls are given as the source filed them. The rule behind the calls is not given here.

As for `Cc1[nH]c(/C=C2\C(=O)Nc3cc(NC(=O)Nc4cc(C(C)(C)C)on4)ccc32)c(C)c1NC(=O)CN1CCN(C)CC1`, the outcome in the data set on THP-1 [1], in the data set on THP-1 [2], with MC-38 [3], in the data set with MC-38 [4], in the data set on THP-1 [5] and with BMDM [6] was Active. Besides, the result with THP-1 [7], in the data set on BMDM [10], in the data set with MC-38 [14] and in the data set with MC-38 [15] was Active. In addition, the Activity result in the data set on MC-38 [8] is “Dose-dependent effect”; in the data set on Mus musculus [9], “Non-Toxic”; in the data set with Mus musculus [11], “Non-Toxic”; in the data set on Mus musculus [16] it was “Non-Toxic”; in the data set with Mus musculus [18], “Non-Toxic”. In addition, the Kd in data set [12] is 3.4 nM. Moreover, the result in the data set with MC-38 [13] and in the data set with HCT-116 was inactive. Also, in [17], the Tm was 68 °C.
